These results are taken from EP3928779A1 (Chugai Seiyaku Kabushiki Kaisha, priority 2014, dated 2016).

The structures appear in SMILES notation.

This experiment concerns rat small-intestinal brush border membrane vesicles. The experiment in a line: Inhibitory effect on 33PO4 uptake into rat small-intestinal brush border membrane vesicles (rapid filtration method). Format: biochemical. Conditions: 33PO4 uptake into rat small-intestinal BBMVs; test compound 1 µM; reacted for 60 seconds. In outline:
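Uptake of ^33PO4 was measured by rapid filtration and liquid scintillation counting of filter-retained vesicles, after quenching with ice-cold 110 mM NaCl/1 mM KH2PO4/10 mM HEPES pH 7.5. Vesicles were brush border membranes from the upper small intestine of female Wistar rats aged 4–5 weeks.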

Turning to `CN1[C@@H](C(C)(C)C)C(O)=C(C(=O)Nc2ccc(Cl)cc2-c2cc(C(F)(F)F)ncn2)C(=O)N1Cc1ccc(OCCN2CCOCC2)c(F)c1F` [Example 265, (3S)-3-tert-Butyl-N-[4-chloro-2-[6-(trinuoromethyl)pyrimidin-4-yl]phenyl]-1-[[2,3-difluoro-4-(2-morpholin-4-ylethoxy)phenyl]methyl]-4-hydroxy-2-methyl-6-oxo-3H-pyridazine-5-carboxamide], the “Rate of uptake inhibition (%) (1 µM)” value amounted to 52%.

`CN1[C@@H](C(C)(C)C)C(O)=C(C(=O)Nc2ccc(C(F)(F)F)cc2-c2ccc(C(F)(F)F)nc2)C(=O)N1Cc1ccc(OCCN2CCOCC2)c(F)c1F` [Example 266]: the “Rate of uptake inhibition (%) (1 µM)” value came out at 62%.

In the case of `CSc1ccc(-c2cc(C(F)(F)F)ccc2NC(=O)C2=C(O)[C@H](C(C)(C)C)N(C)N(Cc3ccc(OCCN4CCOCC4)c(F)c3F)C2=O)cn1` [Example 268], the “Rate of uptake inhibition (%) (1 µM)” value is reported as 63%.

With `CN1[C@@H](C(C)(C)C)C(O)=C(C(=O)Nc2ccc(C(F)(F)F)cc2-c2ccnc(C#N)c2)C(=O)N1Cc1ccc(OCCN2CCOCC2)c(F)c1F` [Example 271], the “Rate of uptake inhibition (%) (1 µM)” value worked out at 60%.

For the molecule `CN1[C@@H](C(C)(C)C)C(O)=C(C(=O)Nc2ccc(Cl)cc2-c2cc(C#N)ncn2)C(=O)N1Cc1ccc(OCCN2CCOCC2)c(F)c1F` [Example 272], the “Rate of uptake inhibition (%) (1 µM)” value stood at 43%.

For `CN1[C@@H](C(C)(C)C)C(O)=C(C(=O)Nc2cnc(C(F)(F)F)nc2-c2ccc(C(F)(F)F)nc2)C(=O)N1Cc1ccc(OCCN2CCOCC2)c(F)c1F` [Example 273], the “Rate of uptake inhibition (%) (1 µM)” value is on record as 41%.

As for `Cc1c(C#N)ncnc1-c1cc(Cl)ccc1NC(=O)C1=C(O)[C@H](C(C)(C)C)N(C)N(Cc2ccc(OCCN3CCOCC3)c(F)c2F)C1=O` [Example 274], the “Rate of uptake inhibition (%) (1 µM)” value worked out at 43%.

On to `Cc1c(Cl)ncnc1-c1cc(Cl)ccc1NC(=O)C1=C(O)[C@H](C(C)(C)C)N(C)N(Cc2ccc(OCCN3CCOCC3)c(F)c2F)C1=O` [Example 275], for which the “Rate of uptake inhibition (%) (1 µM)” value was 42%.

Turning to `Cc1c(Cl)ncnc1-c1cc(C(F)(F)F)ccc1NC(=O)C1=C(O)[C@H](C(C)(C)C)N(C)N(Cc2ccc(OCCN3CCOCC3)c(F)c2F)C1=O` [Example 276], the “Rate of uptake inhibition (%) (1 µM)” value is reported as 68%.

As for `CN1[C@@H](C(C)(C)C)C(O)=C(C(=O)Nc2ccc(C(F)(F)F)cc2C(F)(F)F)C(=O)N1Cc1ccc(OCCN2CCOCC2)c(F)c1F` [Example 277], the “Rate of uptake inhibition (%) (1 µM)” value was 41%.

Turning to `Cc1c(-c2cc(C(F)(F)F)ccc2NC(=O)C2=C(O)[C@H](C(C)(C)C)N(C)N(Cc3ccc(OCCN4CCOCC4)c(F)c3F)C2=O)ncnc1C(F)(F)F` [Example 278], the “Rate of uptake inhibition (%) (1 µM)” value is 69%.

For the molecule `CC(C)[C@H]1C(O)=C(C(=O)Nc2ccc(C(F)(F)F)cc2-c2ccc(C(F)(F)F)nc2)C(=O)N(Cc2ccc(OCCN3CCOCC3)c(F)c2F)N1C` [Example 280], the “Rate of uptake inhibition (%) (1 µM)” value is 50%.

As for `CC(C)[C@H]1C(O)=C(C(=O)Nc2ccc(Cl)cc2-c2ccc(C(F)(F)F)nc2)C(=O)N(Cc2ccc(OCCN3CCOCC3)c(F)c2F)N1C` [Example 281], the “Rate of uptake inhibition (%) (1 µM)” value worked out at 41%.

`CN1N(Cc2ccc(OCCN3CCOCC3)c(F)c2F)C(=O)C(C(=O)Nc2ccc(C(F)(F)F)cc2-c2ccc(C(F)(F)F)nc2)=C(O)C12CCC2` [Example 282]: the “Rate of uptake inhibition (%) (1 µM)” value was found to be 55%.

In the case of `Cc1c(C#N)ncnc1-c1cc(C(F)(F)F)ccc1NC(=O)C1=C(O)C2(CCC2)N(C)N(Cc2ccc(OCCN3CCOCC3)c(F)c2F)C1=O` [Example 283], the “Rate of uptake inhibition (%) (1 µM)” value came out at 45%.

As for `CN1N(Cc2ccc(OCCN3CCOCC3)c(F)c2F)C(=O)C(C(=O)Nc2ccc(C(F)(F)F)cc2-c2ncnc(C(F)(F)F)c2Cl)=C(O)C12CCC2` [Example 284], the “Rate of uptake inhibition (%) (1 µM)” value is 46%.

As for `Cc1c(-c2cc(C(F)(F)F)ccc2NC(=O)C2=C(O)C3(CCC3)N(C)N(Cc3ccc(OCCN4CCOCC4)c(F)c3F)C2=O)ncnc1C(F)(F)F` [Example 285], the “Rate of uptake inhibition (%) (1 µM)” value is 62%.

Turning to `CN1N(Cc2ccc(OCCN3CCOCC3)c(F)c2F)C(=O)C(C(=O)Nc2ccc(Cl)cc2-c2cc(C(F)(F)F)ncn2)=C(O)C12CCCC2` [Example 286], the “Rate of uptake inhibition (%) (1 µM)” value is on record as 50%.

Regarding `CN1N(Cc2ccc(OCCN3CCOCC3)c(F)c2F)C(=O)C(C(=O)Nc2ccc(C(F)(F)F)cc2-c2ccc(C(F)(F)F)nc2)=C(O)C12CCCC2` [Example 287], the “Rate of uptake inhibition (%) (1 µM)” value was determined as 47%.

In the case of `CN1N(Cc2ccc(OCCN3CCOCC3)c(F)c2F)C(=O)C(C(=O)Nc2ccc(Cl)cc2-c2ccc(C(F)(F)F)nc2)=C(O)C12CCCC2` [Example 288], the “Rate of uptake inhibition (%) (1 µM)” value is 61%.

`CSc1ccc(-c2cc(C(F)(F)F)ccc2NC(=O)C2=C(O)C3(CCCC3)N(C)N(Cc3ccc(OCCN4CCOCC4)c(F)c3F)C2=O)cn1` [Example 289]: the “Rate of uptake inhibition (%) (1 µM)” value was 55%.

On to `Cc1c(-c2cc(C(F)(F)F)ccc2NC(=O)C2=C(O)C3(CCCC3)N(C)N(Cc3ccc(OCCN4CCOCC4)c(F)c3F)C2=O)ncnc1C(F)(F)F` [Example 290], for which the “Rate of uptake inhibition (%) (1 µM)” value was 59%.

`CCC1(CC)C(O)=C(C(=O)Nc2ccc(C(F)(F)F)cc2-c2cc(C(F)(F)F)ncn2)C(=O)N(Cc2ccc(OCCN3CCOCC3)c(F)c2F)N1C` [Example 291]: the “Rate of uptake inhibition (%) (1 µM)” value stood at 47%.

Take `CCC1(CC)C(O)=C(C(=O)Nc2ccc(Cl)cc2-c2cc(C(F)(F)F)ncn2)C(=O)N(Cc2ccc(OCCN3CCOCC3)c(F)c2F)N1C` [Example 292]: the “Rate of uptake inhibition (%) (1 µM)” value is reported as 44%.

With `CCC1(CC)C(O)=C(C(=O)Nc2ccc(C(F)(F)F)cc2-c2ccc(C(F)(F)F)nc2)C(=O)N(Cc2ccc(OCCN3CCOCC3)c(F)c2F)N1C` [Example 293], the “Rate of uptake inhibition (%) (1 µM)” value came to 47%.

On to `CCC1(CC)C(O)=C(C(=O)Nc2ccc(Cl)cc2-c2ccc(C(F)(F)F)nc2)C(=O)N(Cc2ccc(OCCN3CCOCC3)c(F)c2F)N1C` [Example 294], for which the “Rate of uptake inhibition (%) (1 µM)” value turned out to be 40%.

In the case of `CN1N(Cc2ccc(OCCN3CCOCC3)c(F)c2F)C(=O)C(C(=O)Nc2ccc(C(F)(F)F)cc2-c2cc(C(F)(F)F)ncn2)=C(O)C12CCCCC2` [Example 295], the “Rate of uptake inhibition (%) (1 µM)” value came out at 21%.

In the case of `Cc1c(-c2cc(C(F)(F)F)ccc2NC(=O)C2=C(O)C3(CCCCC3)N(C)N(Cc3ccc(OCCN4CCOCC4)c(F)c3F)C2=O)ncnc1C(F)(F)F` [Example 296], the “Rate of uptake inhibition (%) (1 µM)” value stood at 17%.

For `CN1N(Cc2ccc(OCCN3CCOCC3)c(F)c2F)C(=O)C(C(=O)Nc2ccc(Cl)cc2-c2cc(C(F)(F)F)ncn2)=C(O)C12CCCCC2` [Example 297], the “Rate of uptake inhibition (%) (1 µM)” value is 36%.

For the molecule `CN1N(Cc2ccc(OCCN3CCOCC3)c(F)c2F)C(=O)C(C(=O)Nc2ccc(Br)c(C(F)(F)F)n2)=C(O)C12CCCCC2` [Example 298], the “Rate of uptake inhibition (%) (1 µM)” value was determined as 10%.

For `CC1(C)C(O)=C(C(=O)Nc2ccc(C(F)(F)F)cc2-c2cc(C(F)(F)F)ncn2)C(=O)N(Cc2cccc(F)c2F)N1c1ccccc1` [Example 299], the “Rate of uptake inhibition (%) (1 µM)” value is recorded as 45%.

Turning to `CN1N(Cc2cccc(F)c2F)C(=O)C(C(=O)Nc2ccc(C(F)(F)F)cc2-c2cc(C(F)(F)F)ncn2)=C(O)C12CCC2` [Example 300], the “Rate of uptake inhibition (%) (1 µM)” value was 74%.

For the molecule `CN1N(Cc2cccc(F)c2F)C(=O)C(C(=O)Nc2ccc(C(F)(F)F)cc2-c2ccc(C(F)(F)F)nc2)=C(O)C12CCC2` [Example 301], the “Rate of uptake inhibition (%) (1 µM)” value is on record as 79%.

In the case of `COc1cc(-c2cc(C(F)(F)F)ccc2NC(=O)C2=C(O)C(C)(C)N(C)N(Cc3cccc(F)c3F)C2=O)cnc1C#N` [Example 302], the “Rate of uptake inhibition (%) (1 µM)” value was 79%.

As for `CN1N(Cc2cccc(F)c2F)C(=O)C(C(=O)Nc2ccc(C(F)(F)F)cc2-c2cc(C#N)ncn2)=C(O)C1(C)C` [Example 303], the “Rate of uptake inhibition (%) (1 µM)” value is reported as 42%.

For the molecule `CN1N(Cc2cccc(F)c2F)C(=O)C(C(=O)Nc2ccc(C(F)(F)F)nc2-c2ccc(C(F)(F)F)nc2)=C(O)C1(C)C` [Example 304], the “Rate of uptake inhibition (%) (1 µM)” value is listed as 51%.

Consider `CN1N(Cc2cccc(F)c2F)C(=O)C(C(=O)Nc2ccc(C(F)(F)F)cc2-c2cncc(C(F)(F)F)c2)=C(O)C1(C)C` [Example 305], for which the “Rate of uptake inhibition (%) (1 µM)” value is given as 66%.

Take `CN1N(Cc2cccc(F)c2F)C(=O)C(C(=O)Nc2ccc(C(F)(F)F)nc2-c2cncc(C(F)(F)F)c2)=C(O)C1(C)C` [Example 306]: the “Rate of uptake inhibition (%) (1 µM)” value came out at 58%.

As to `CN1N(Cc2cccc(F)c2F)C(=O)C(C(=O)Nc2cc(C(F)(F)F)ccc2-c2ccc(C(F)(F)F)nc2)=C(O)C1(C)C` [Example 307], the “Rate of uptake inhibition (%) (1 µM)” value worked out at 41%.

Take `CN1N(Cc2cccc(F)c2F)C(=O)C(C(=O)Nc2ccc(C(F)(F)F)cc2-c2ccc(S(=O)(=O)N(C)C)cc2)=C(O)C1(C)C` [Example 308]: the “Rate of uptake inhibition (%) (1 µM)” value is given as 63%.

On to `CN1N(Cc2cccc(F)c2F)C(=O)C(C(=O)Nc2ccc(Cl)cc2-c2ccc(C(F)(F)F)nc2)=C(O)C1(C)C` [Example 309], for which the “Rate of uptake inhibition (%) (1 µM)” value is 68%.

Consider `CSc1ccc(-c2cc(C(F)(F)F)ccc2NC(=O)C2=C(O)C(C)(C)N(C)N(Cc3cccc(F)c3F)C2=O)cn1` [Example 310], for which the “Rate of uptake inhibition (%) (1 µM)” value amounted to 63%.

For `Cc1c(C#N)ncnc1-c1cc(C(F)(F)F)ccc1NC(=O)C1=C(O)C(C)(C)N(C)N(Cc2cccc(F)c2F)C1=O` [Example 311], the “Rate of uptake inhibition (%) (1 µM)” value was found to be 65%.

With `CN1N(Cc2cccc(F)c2F)C(=O)C(C(=O)Nc2ccc(C(F)(F)F)cc2-c2ncnc(C#N)c2Cl)=C(O)C1(C)C` [Example 312], the “Rate of uptake inhibition (%) (1 µM)” value turned out to be 74%.

With `CN1N(Cc2ccc(OCCN3CCOCC3)c(F)c2F)C(=O)C(C(=O)Nc2ccc(C(F)(F)F)cc2-c2cc(C(F)(F)F)ncn2)=C(O)C1(C)C` [Example 313, 2-[[2,3-Difluoro-4-(2-morpholin-4-ylethoxy)phenyl]methyl]-5-hydroxy-1,6,6-trimethyl-3-oxo-N-[4-(trifluoromethyl)-2-[6-(trifluoromethyl)pyrimidin-4-yl]phenyl]pyridazine-4-carboxamide], the “Rate of uptake inhibition (%) (1 µM)” value worked out at 65%.
